This experiment deals with T1, human AR (Homo sapiens, UniProt P10275).
T1 construct: expressed in transfected cells; host or cells: COS-1
T1 sequence (P10275 1-920): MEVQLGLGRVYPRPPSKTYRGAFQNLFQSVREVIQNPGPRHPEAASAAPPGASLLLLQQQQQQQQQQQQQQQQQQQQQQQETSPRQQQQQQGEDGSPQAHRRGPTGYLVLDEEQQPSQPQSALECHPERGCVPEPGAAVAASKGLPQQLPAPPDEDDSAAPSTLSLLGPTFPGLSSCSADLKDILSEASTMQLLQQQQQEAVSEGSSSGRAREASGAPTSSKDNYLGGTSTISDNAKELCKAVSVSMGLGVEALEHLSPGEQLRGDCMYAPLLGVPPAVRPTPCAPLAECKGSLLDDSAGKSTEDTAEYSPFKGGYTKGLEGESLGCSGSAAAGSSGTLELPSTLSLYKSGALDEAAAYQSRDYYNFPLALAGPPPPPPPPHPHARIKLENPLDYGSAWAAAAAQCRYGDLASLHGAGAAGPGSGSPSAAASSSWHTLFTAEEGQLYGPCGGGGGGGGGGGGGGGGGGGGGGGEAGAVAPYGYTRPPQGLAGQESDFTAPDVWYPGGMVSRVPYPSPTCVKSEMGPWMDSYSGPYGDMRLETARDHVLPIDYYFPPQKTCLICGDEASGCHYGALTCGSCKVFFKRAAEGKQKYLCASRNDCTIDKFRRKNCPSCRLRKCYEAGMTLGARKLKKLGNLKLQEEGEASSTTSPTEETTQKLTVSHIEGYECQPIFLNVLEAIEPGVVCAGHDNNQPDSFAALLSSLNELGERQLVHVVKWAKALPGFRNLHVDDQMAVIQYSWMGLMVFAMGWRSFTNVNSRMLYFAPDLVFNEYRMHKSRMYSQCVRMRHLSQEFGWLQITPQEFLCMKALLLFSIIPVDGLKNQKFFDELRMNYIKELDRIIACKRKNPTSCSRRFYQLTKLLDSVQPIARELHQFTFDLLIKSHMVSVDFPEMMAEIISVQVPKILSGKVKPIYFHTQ
Kind of experiment: Competitive AR binding assay against [3H]-R1881 in transiently transfected COS-1 cells. To be noted: compound 13.4 μM, [3H]-R1881 1.34 nM, complete inhibition equals 100%, read-out: Inhibition of [3H]-R1881 binding at 1.34 nM ± S.D. An outline of the steps: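 COS-1 cells transfected 24 h with human AR vector, then after 36 h exposed 2 h at 37° C to compound at 10000-fold molar excess over 1.34 nM [3H]-R1881. Cell-bound radioactivity counted in triplicate; result given as % inhibition of labelled R1881 binding.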

Where two headings read alike, the source gives them in different places.

What is called inhibition is the relative decrease from the control value, in per cent.

As to `CC(C)(O)C(=O)Nc1ccc([N+](=O)[O-])c(C(F)(F)F)c1` [Hydroxyflutamide, reference compound], the inhibition at 13.4 µM runs as follows: (Table 1) 91.1 ± 2.2%; (Table 2) 94.8 ± 0.8%; (Table 3) 95.2 ± 2.9%.

Source of the values: patent publication US9278942B2, “Non-steroidal compounds as androgen receptor modulators” (FLX Discoveries Oy, priority 2011, dated 2016).
